These are literature values, as cited in PMC3065210 (Inorganic Chemistry, 2011).

Assay in data set [1]: not given
The source holds these as a separate data set.

Like-named read-outs stand apart in the source and are kept apart here.

As for `O=C([O-])CN1CCCN2CCN(CCCN(CC(=O)[O-])CC2)CC1.[Cu+2]` [Cu-CB-TE2A], the acid inertness half-life result (5 M HCl, 90 °C) is listed as “more than 6 d”.

`C1CNCCN2CCNCCN(C1)CC2.[Cu+2]` [Cu-CB-homocyclen]: the acid inertness half-life (1 M HCl, 30 °C) is reported as 4.8 h.

Turning to `O=C([O-])CN1CCN2CCN(CC1)CCN(CC(=O)[O-])CC2.[64Cu+2]` [^64Cu-CB-DO2A], the “accumulation in the liver” value in data set [1] (24 h p.i., previously published data (text says mice)) was 0.024 ± 0.002 %ID/g. The activity in blood in data set [1] (rats, 24 h, previously published data) is recorded as 0.011 ± 0.004 %ID/g. In addition, the “tissue associated radioactivity in kidneys” value in data set [1] (rats, 24 h p.i., previously published data) is 0.064 ± 0.007 %ID/g. Moreover, the “liver clearance (percent reduction)” value in data set [1] (rats, at 22 or 24 h PI, from published data) is on record as 69.5%. For the same molecule, the kidney clearance in data set [1] (rats, out to 22 or 24 h PI, from published data) was 95.6%.
